Values of other authors, collected in patent publication US6951877B2, “Materials and methods for treating hypercholesterolemia” (ARYx Therapeutics, Inc., priority 2002, dated 2005).
Like-named read-outs stand apart in the source and are kept apart here.

Tests used:
[1] = tested on: patients
[2] = tested on: patients; remark: listed apart in the source
[3] = tested on: asymptomatic, middle-aged men with primary hypercholesterolemia

Structure (SMILES): CC(C)c1c(C(=O)Nc2ccccc2)c(-c2ccccc2)c(-c2ccc(F)cc2)n1CC[C@@H](O)C[C@@H](O)CC(=O)O [atorvastatin]
- patients with elevated liver enzymes ([1]; 40 mg): 0.6%
- patients with elevated liver enzymes ([1]; 80 mg): 2.3%
- patients with elevated liver enzymes ([1]; doses of 10 or 20 mg): 0.2%

Structure (SMILES): COCc1c(C(C)C)nc(C(C)C)c(/C=C/[C@@H](O)C[C@@H](O)CC(=O)O)c1-c1ccc(F)cc1 [cerivastatin]
- U.S. deaths due to severe rhabdomyolysis reported to FDA ([2]; all reports associated with use of cerivastatin): 31
- U.S. deaths due to severe rhabdomyolysis reported to FDA ([2]; concomitant gemfibrozil use): 12

Structure (SMILES): Cc1ccc(C)c(OCCCC(C)(C)C(=O)O)c1 [gemfibrozil]
- reduction in CHD risk ([3]; over the 5-year follow-up period): 34%
- HDL cholesterol ([3]; treatment with gemfibrozil): increased HDL cholesterol
- LDL cholesterol ([3]; treatment with gemfibrozil): lowered LDL, cholesterol
